Measured values from US7737121B2, “Insulin secretion by anthocyanins and anthocyanidins” (Board of Trustees of Michigan State University, priority 2004, dated 2010).

How the values were obtained:
[1] = tested on: INS-1 832/13 cells; assay: Insulin secretion by INS-1 832/13 pancreatic beta cells (static secretion, insulin by RIA, normalized to cellular protein); type: cell-based, rodent; details: for increase in insulin secretion: increase over untreated cells; for fold increase in insulin secretion: versus untreated cells
Description: Insulin Secretion Studies. INS-1 832/13 cells (kindly provided by Dr Christopher Newgard, Duke University, NC) (18) were routinely cultured in 5% CO2/air at 37° C. in RPMI-1640 medium containing 11.1 mM glucose and supplemented with 10% FBS (Fetal Bovine Serum), 10 mM HEPES, 100 U/ml penicillin, 100 μg/ml streptomycin, 4 mM Glutamine, 1 mM sodium pyruvate, and 50 μM 2-mercaptoethanol. Cells were passed weekly after trypsin-EDTA detachment. For static secretion studies, cells were plated on 24 well plates at a density of 0.64×10^6 cells per well and grown for 24 h. The cells were then cultured for an additional 24 h in RPMI-1640 containing 4 mM glucose and the supplements described above. Cells were then incubated twice for 30 min in Krebs Ringer Bicarbonate buffer (KRBB) containing 4 mM glucose and 0.1% BSA. Cells were rapidly washed with KRBB and incubated for 60 min KRBB containing 4 or 10 mM glucose with or without the indicated anthocyanins or anthocyanidins. The medium was then removed for determining insulin release. The cells were then washed twice with PBS and dissolved in 1 M NaOH. Cellular protein concentration was then determined by Lowry assay. Anthocyanins and anthocyanidins were dissolved in DMSO to obtain desired concentrations. Final concentration of DMSO was 0.1%. The insulin secreted into the medium by the cells was determined by radioimmuno assay and normalized to total cellular protein.
Radio Immuno Assay (RIA). The Kit for RIA was purchased from LINCO Research Inc. (St Charles, Mo.), and the assay was conducted according to the manufacturer's directions. Briefly, 0.1-10 ng of insulin standards (100 μl) were added to 12×75 mm test tubes. Similarly, samples (25 μl) from the insulin secretion studies were also added to the test tubes. To this, an aliquot (75 μl) of assay buffer was added. The ^125I labeled insulin (100 μl) was then added to each test tube. […] The tubes were then centrifuged and the radioactivity was measured using a gamma counter.
Lowry protein Assay. The amount of protein in the assay wells was determined by Lowry method (Francis, J. A., et al., Helv. Chim. Acta 87 317-326 (2004)). The Lowry assay solution was prepared by combining the Lowry solution, CuSO4.5H2O (1%), and sodium tartarate (1%). Briefly, the protein sample (100 μl) and Lowry mixture (1 mL) were mixed in a test tube (12×75). The Folin-Ciolatues reagent (100 μl) was added to these tubes, mixed, and incubated for 30 min at room temperature. The optical density of resulting solutions was read at 700 nm using a UV spectrophotometer.

[2] = mice; cited from earlier work
[3] = 4 mM glucose, 50 μg/mL compound
[4] = 10 mM glucose, 50 μg/mL compound

| Compound | effect on insulin secretion, result in words [1, 3] | effect on insulin secretion, result in words ([1]; 4 and 10 mM glucose) | high fat diet induced obesity [2] | insulin secreted (dose dependent assay) ([1]; 4 mM glucose, 5 μg/mL compound, untreated cells 33) | increase in insulin secretion ([1]; 4 mM glucose, 50 μg/mL compound, 60 min) | fold increase in insulin secretion [1, 3] [fold] | insulin secretion (dose dependent assay), result in words ([1]; 4 mM glucose, 10, 50, 100 and 250 μg/mL compound) | effect on insulin secretion, result in words [1, 4] | increase in insulin secretion [1, 4] | fold increase in insulin secretion [1, 4] [fold] | insulin secreted ([1]; 4 mM glucose, 50 μg/mL compound, total secreted by treated cells) | effect on insulin secretion, result in words ([1]; 4 and 10 mM glucose, listed as delphinidin-3-glucoside) |
| --- | --- | --- | --- | --- | --- | --- | --- | --- | --- | --- | --- | --- |
| OCC1OC(Oc2cc3c(O)cc(O)cc3[o+]c2-c2ccc(O)cc2)C(O)C(O)C1O (stereo not shown) [Compound 4, pelargonidin-3-galactoside] | did not increase the insulin secretion | did not induce insulin secretion | – | – | – | – | – | – | – | – | – | – |
| OC[C@H]1O[C@@H](Oc2cc3c(O)cc(O)cc3[o+]c2-c2ccc(O)c(O)c2)[C@H](O)[C@@H](O)[C@@H]1O [Compound 1, cyanidin-3-glucoside] | less active than delphinidin-3-glucoside | most effective insulin secretagogues | reduced | 46 ng of insulin per mg protein | 9 ng/mg of protein | 1.3 | no significant difference | more active | – | – | – | – |
| OC[C@H]1O[C@@H](Oc2cc3c(O)cc(O)cc3[o+]c2-c2ccc(O)c(O)c2)[C@H](O)[C@@H](O)[C@H]1O [Compound 3, cyanidin-3-galactoside] | did not increase the insulin secretion | significant increase in insulin secretion | – | – | – | – | – | – | 17 ng/mg of protein | 1.2 | – | – |
| OC[C@H]1O[C@@H](Oc2cc3c(O)cc(O)cc3[o+]c2-c2cc(O)c(O)c(O)c2)[C@H](O)[C@@H](O)[C@@H]1O [Compound 2, delphinidin-3-glucoside] | – | most effective insulin secretagogues | – | – | – | 1.8 | – | – | – | 1.4 | 49 ng/mg of protein | significantly induced the insulin secretion |
